Reference: patent US11225471B2, “Antidiabetic bicyclic compounds” (Merck Sharp & Dohme Corp., priority 2017, dated 2022)

What follows are molecules tested against T1, human GPR40 (Homo sapiens, UniProt O14842) (assay: Inositol Phosphate Turnover (IP1) Assay). Settings: HEK cells stably expressing human GPR40; 60 min incubation.
T1 construct: expressed in transfected cells
Format: cell-based
Description: Human GPR40 stable cell-lines were generated in HEK cells. The expression plasmids were transfected using lipofectamine (Life Technologies) following manufacturer's instructions. Stable cell-lines were generated following drug selection and single cell cloning. The assay was performed in 384-well format. HEK cells stably expressing human GPR40 were plated at 7500 cells per well in growth medium (DMEM/10% fetal calf serum). Cell plates were then incubated 16 hours at 37 degrees in a 5% CO2 incubator. Measurement of Inositol Phosphate Turnover (IP1) was performed using the CisBio IP-One kit (Part number 62IPAPEB). After the 16 hour incubation, the growth media was removed by centrifugation using the BlueWasher (AusWasher GUI Ver. v1.0.1.8) Protocol #21-“Light Dry” and 10 ul of stimulation buffer (prepared as described in the kit) was added to each well. In a separate plate, compounds were diluted in DMSO (200-fold over the final concentration in the assay well) and 50 nl was acoustically transferred to the appropriate well in the assay cell plate. The plates were then incubated for 60 minutes at 37 degrees in a 5% CO2 incubator. 10 ul of detection buffer (also prepared as described in the IP-One kit) was added to each well and the plates were incubated at room temperature for 60 minutes in the dark. The plates were then read in a Perkin Elmer EnVision or equivalent reader able to measure FRET. Fluorescent ratio of emission at 665 and 620 nm was then converted to IP1 concentration by back calculating from an IP1 standard curve prepared at the time of the assay. Data were normalized to % activity using a reference compound and EC50s determined using a standard 4-parameter fit.

T1 sequence (O14842 whole entry): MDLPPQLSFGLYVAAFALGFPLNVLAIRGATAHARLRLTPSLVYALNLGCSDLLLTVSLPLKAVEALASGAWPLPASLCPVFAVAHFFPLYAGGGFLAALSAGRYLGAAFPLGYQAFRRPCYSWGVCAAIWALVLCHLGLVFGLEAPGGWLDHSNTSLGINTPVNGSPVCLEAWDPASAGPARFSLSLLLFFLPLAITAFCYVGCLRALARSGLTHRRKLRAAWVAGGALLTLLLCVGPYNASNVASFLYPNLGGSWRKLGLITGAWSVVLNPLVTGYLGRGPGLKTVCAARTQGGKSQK

SMILES	EC50 [nM]
CCc1nc([C@H]2CCc3ccc([C@H](C4CC4)[C@H](C)C(=O)O)cc3O2)cnc1-c1cc(OC)ncc1F [Example 23, (2S,3R)-3-cyclopropyl-3-((R)-2-(6-ethyl-5-(5-fluoro-2-methoxypyridin-4-yl)pyrazin-2-yl)chroman-7-yl)-2-methylpropanoic acid]	6.5
COc1cc(-c2ncc(C3CCc4ccc([C@H](C5CC5)[C@H](C)C(=O)O)cc4O3)nc2C)c(Cl)cn1 (single isomer, unassigned) [Example 14]	13.8
COc1cc(-c2cnc(C3CCc4ccc([C@H](C5CC5)[C@H](C)C(=O)O)cc4O3)c(C)n2)c(C2CC2)cn1 (single isomer, unassigned) [Example 26]	5.4
Cc1nc(-c2cc(OCC(F)F)ncc2F)cnc1C1CCc2ccc([C@H](C3CC3)[C@H](C)C(=O)O)cc2O1 (single isomer, unassigned) [Example 7]	0.9
COc1cc(-c2ncc(C3CCc4ccc([C@H](C5CC5)[C@H](C)C(=O)O)cc4O3)nc2C)c(Cl)cn1 (single isomer, unassigned) [Example 13]	4.1
CCOc1cc(-c2cnc(C3CCc4ccc([C@H](C5CC5)[C@H](C)C(=O)O)cc4O3)c(C)n2)c(F)cn1 (single isomer, unassigned) [Example 9]	0.7
COc1cc(-c2cnc([C@H]3C[C@H](OC)c4ccc([C@H](C5CC5)[C@H](C)C(=O)O)cc4O3)cn2)c(F)cn1 [Example 27, (2S,3R)-3-cyclopropyl-3-{(2R,4S)-2-[5-(5-fluoro-2-methoxypyridin-4-yl)pyrazin-2-yl]-4-methoxy-3,4-dihydro-2H-chromen-7-yl}-2-methylpropanoic Acid]	1.7
CCOc1cc(-c2ncc(C3CCc4ccc([C@H](C5CC5)[C@H](C)C(=O)O)cc4O3)nc2C)c(F)cn1 (single isomer, unassigned) [Example 4]	6.9
CCOc1cc(-c2ncc(C3CCc4ccc([C@H](C5CC5)[C@H](C)C(=O)O)cc4O3)nc2C)c(F)cn1 (single isomer, unassigned) [Example 3]	7.8
Cc1nc(-c2cc(OCC(F)F)ncc2F)cnc1C1CCc2ccc([C@H](C3CC3)[C@H](C)C(=O)O)cc2O1 (single isomer, unassigned) [Example 8]	1
COc1cc(-c2ncc(C3CCc4ccc([C@H](C5CC5)[C@H](C)C(=O)O)cc4O3)nc2C)c(Cl)cn1 (single isomer, unassigned) [Example 5]	11.2
COc1cc(-c2ncc(C3CCc4ccc([C@H](C5CC5)[C@H](C)C(=O)O)cc4O3)nc2C)c(Cl)cn1 (single isomer, unassigned) [Example 6]	3.3
CCc1nc([C@@H]2CCc3ccc([C@H](C4CC4)[C@H](C)C(=O)O)cc3O2)cnc1-c1cc(OC)ncc1F [Example 24, (2S,3R)-3-cyclopropyl-3-((S)-2-(6-ethyl-5-(5-fluoro-2-methoxypyridin-4-yl)pyrazin-2-yl)chroman-7-yl)-2-methylpropanoic Acid]	2.3

The remaining lines, values ahead:

EC50 [nM]	SMILES
8.1	COc1cc(-c2cnc(C3CCc4ccc([C@H](C5CC5)[C@H](C)C(=O)O)cc4O3)c(C)n2)c(C)cn1 (single isomer, unassigned) [Example 25]
0.3	COc1cc(-c2cnc(C3CCc4ccc([C@H](C5CC5)[C@H](C)C(=O)O)c(F)c4O3)c(C)n2)c(F)cn1 (single isomer, unassigned) [Example 17]
1.1	CCOc1cc(-c2cnc(C3CCc4ccc([C@H](C5CC5)[C@H](C)C(=O)O)c(F)c4O3)c(C)n2)c(F)cn1 (single isomer, unassigned) [Example 19]
1.3	COc1cc(-c2cnc([C@H]3CCc4ccc([C@H](C5CC5)[C@H](C)C(=O)O)cc4O3)c(C)n2)c(Cl)cn1 (single isomer, unassigned) [Example 2]
4.3	CCOc1cc(-c2ncc([C@@H]3CCc4ccc([C@H](C5CC5)[C@H](C)C(=O)O)c(F)c4O3)nc2C)c(F)cn1 [Example 12, (2S,3R)-3-cyclopropyl-3-((S)-2-(5-(2-ethoxy-5-fluoropyridin-4-yl)-6-methylpyrazin-2-yl)-8-fluorochroman-7-yl)-2-methylpropanoic Acid]
0.4	CCOc1cc(-c2cnc(C3CCc4ccc([C@H](C5CC5)[C@H](C)C(=O)O)c(F)c4O3)c(C)n2)c(F)cn1 (single isomer, unassigned) [Example 20]
0.6	COc1cc(-c2cnc([C@@H]3CCc4ccc([C@H](C5CC5)[C@H](C)C(=O)O)cc4O3)c(C)n2)c(Cl)cn1 (single isomer, unassigned) [Example 1]
0.3	COc1cc(-c2cnc(C3CCc4ccc([C@H](C5CC5)[C@H](C)C(=O)O)c(F)c4O3)c(C)n2)c(Cl)cn1 (single isomer, unassigned) [Example 21]
3	COc1cc(-c2ncc(C3CCc4ccc([C@H](C5CC5)[C@H](C)C(=O)O)c(F)c4O3)nc2C)c(F)cn1 (single isomer, unassigned) [Example 15]
6.6	COc1cc(-c2ncc(C3CCc4ccc([C@H](C5CC5)[C@H](C)C(=O)O)c(F)c4O3)nc2C)c(F)cn1 (single isomer, unassigned) [Example 16]
4.2	COc1cc(-c2cnc(C3CCc4ccc([C@H](C5CC5)[C@H](C)C(=O)O)c(F)c4O3)c(C)n2)c(F)cn1 (single isomer, unassigned) [Example 18]
3.5	CCOc1cc(-c2ncc([C@H]3CCc4ccc([C@H](C5CC5)[C@H](C)C(=O)O)c(F)c4O3)nc2C)c(F)cn1 [Example 11, (2S,3R)-3-cyclopropyl-3-((R)-2-(5-(2-ethoxy-5-fluoropyridin-4-yl)-6-methylpyrazin-2-yl)-8-fluorochroman-7-yl)-2-methylpropanoic acid]
1.6	COc1cc(-c2cnc(C3CCc4ccc([C@H](C5CC5)[C@H](C)C(=O)O)c(F)c4O3)c(C)n2)c(Cl)cn1 (single isomer, unassigned) [Example 22]
